Drawing on ChEMBL document CHEMBL1148095, “6-Hydroxymanzamine A and 3,4-dihydromanzamine A, new alkaloids from the Okinawan marine sponge Amphimedon Sp” (J Nat Prod, 1994), this text covers MIC and IC50 for two molecules.

One test concerns Micrococcus luteus. As to the kind of experiment: Antibacterial activity against Sarcina lutea. The class given is functional.
The test system of another test is L1210. As to the kind of experiment: Cytotoxicity against mouse L1210 cells. Type of test: functional, cell-based.
The next test relates to KB. As to the kind of experiment: Cytotoxicity against human KB cells. The class given is functional, cell-based.

Each structure is given as a SMILES string. In brackets after ≈: the same amount, converted by molar mass.

As usually defined, the MIC is the smallest concentration in the dilution series that meets the test's criterion for growth inhibition. High values mean a less susceptible organism, low ones a more susceptible organism. In general, IC50 refers to the concentration that gives 50% inhibition. Regarding `Oc1ccc2[nH]c3c(C4=C[C@@]5(O)CC/C=C\CCCCN6CCC4[C@]4(C[C@@H]7/C=C\CCCCN7[C@H]45)C6)nccc3c2c1` (stereo partly specified), the MIC with Micrococcus luteus stood at 1.25 mg/L (≈ 2.21 µM). In addition, the IC50 with L1210 was 1.5 mg/L (≈ 2.66 µM); in the test on KB, 2.5 mg/L (≈ 4.43 µM).

`O[C@]12C=C(C3=NCCc4c3[nH]c3ccccc43)[C@@H]3CCN(CCCC/C=C\CC1)C[C@@]31C[C@@H]3/C=C\CCCCN3[C@H]12` [3,4-DIHYDROMANZAMINE A] showed an MIC against Micrococcus luteus of 4 mg/L (≈ 7.26 µM). Further, the IC50 came out at 0.48 mg/L (≈ 0.871 µM) with L1210 and 0.61 mg/L (≈ 1.11 µM) in the test on KB.
